Measured values from US9341616B2, “Sweet taste receptor chimeric proteins and use thereof” (AJINOMOTO CO., INC., priority 2014, dated 2016).
Residues, ends and D or L forms follow the SMILES beside them.

The compounds below were run against h-mT1R2-EX5/mT1R3 (UniProt Q8TE23+Q925D8, A537S/A564V/A568V/A570T/A649T/A658V/A782V/E530V/E534N/E542M/E548N/F525Y/F665L/G696N/G701T/H528R/I490V/I510L/I518V/I595M/I643V/I645L/I692L/I695G/K504M/K626T/K714N/L521P/L571I/L578I/L610P/L631F/L636F/L639V/L688V/L702I/L734M/L800F/M492I/M616G/M682V/M690V/M748V/N540G/N541S/N721H/P638T/P824S/Q536L/Q546K/Q555R/Q676H/R498S/R667S/S501P/S547N/S550A/S628F/S663R/S670G/S681F/S703N/S727G/S784D/S804G/T529S/T549I/T609V/T629S/T642S/T705I/T706G/T716I/V508I/V512P/V557A/V585L/V613L/V617M/V673M/V687A/V691A/V694A/V718L/V741L/V774I/V791M/Y533F/Y615F/Y671F/Y769S/Y783H). Settings: Table 4; genes h-mTEX5/mT3 (h-mT1R2-EX5, mT1R3); HEK293E cells.
Sequence of h-mT1R2-EX5/mT1R3 (Q8TE23 with tags, fused parts or gaps with the stated changes limits assumed): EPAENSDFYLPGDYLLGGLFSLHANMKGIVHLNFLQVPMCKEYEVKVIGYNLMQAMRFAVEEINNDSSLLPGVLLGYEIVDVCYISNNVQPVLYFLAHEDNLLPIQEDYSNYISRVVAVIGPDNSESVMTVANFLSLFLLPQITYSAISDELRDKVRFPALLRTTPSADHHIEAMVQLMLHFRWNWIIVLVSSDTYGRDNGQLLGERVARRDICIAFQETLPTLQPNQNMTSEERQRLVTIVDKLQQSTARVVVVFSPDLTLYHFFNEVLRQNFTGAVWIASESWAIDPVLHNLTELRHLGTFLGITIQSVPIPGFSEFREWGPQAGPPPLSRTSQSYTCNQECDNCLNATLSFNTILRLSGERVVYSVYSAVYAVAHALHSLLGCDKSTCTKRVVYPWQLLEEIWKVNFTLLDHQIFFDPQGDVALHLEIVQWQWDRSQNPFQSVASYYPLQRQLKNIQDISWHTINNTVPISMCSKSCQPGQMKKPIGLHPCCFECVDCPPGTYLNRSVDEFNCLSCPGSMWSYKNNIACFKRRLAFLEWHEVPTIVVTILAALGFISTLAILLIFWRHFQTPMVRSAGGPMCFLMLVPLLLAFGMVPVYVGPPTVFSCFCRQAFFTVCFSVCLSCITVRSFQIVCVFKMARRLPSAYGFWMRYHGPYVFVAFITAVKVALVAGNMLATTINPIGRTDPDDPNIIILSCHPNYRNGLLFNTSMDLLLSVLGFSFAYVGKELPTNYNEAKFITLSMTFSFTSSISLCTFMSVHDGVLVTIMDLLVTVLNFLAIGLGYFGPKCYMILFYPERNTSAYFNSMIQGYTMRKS
Sequence of h-mT1R2-EX5/mT1R3 (Q925D8 21-858, stated change not applied): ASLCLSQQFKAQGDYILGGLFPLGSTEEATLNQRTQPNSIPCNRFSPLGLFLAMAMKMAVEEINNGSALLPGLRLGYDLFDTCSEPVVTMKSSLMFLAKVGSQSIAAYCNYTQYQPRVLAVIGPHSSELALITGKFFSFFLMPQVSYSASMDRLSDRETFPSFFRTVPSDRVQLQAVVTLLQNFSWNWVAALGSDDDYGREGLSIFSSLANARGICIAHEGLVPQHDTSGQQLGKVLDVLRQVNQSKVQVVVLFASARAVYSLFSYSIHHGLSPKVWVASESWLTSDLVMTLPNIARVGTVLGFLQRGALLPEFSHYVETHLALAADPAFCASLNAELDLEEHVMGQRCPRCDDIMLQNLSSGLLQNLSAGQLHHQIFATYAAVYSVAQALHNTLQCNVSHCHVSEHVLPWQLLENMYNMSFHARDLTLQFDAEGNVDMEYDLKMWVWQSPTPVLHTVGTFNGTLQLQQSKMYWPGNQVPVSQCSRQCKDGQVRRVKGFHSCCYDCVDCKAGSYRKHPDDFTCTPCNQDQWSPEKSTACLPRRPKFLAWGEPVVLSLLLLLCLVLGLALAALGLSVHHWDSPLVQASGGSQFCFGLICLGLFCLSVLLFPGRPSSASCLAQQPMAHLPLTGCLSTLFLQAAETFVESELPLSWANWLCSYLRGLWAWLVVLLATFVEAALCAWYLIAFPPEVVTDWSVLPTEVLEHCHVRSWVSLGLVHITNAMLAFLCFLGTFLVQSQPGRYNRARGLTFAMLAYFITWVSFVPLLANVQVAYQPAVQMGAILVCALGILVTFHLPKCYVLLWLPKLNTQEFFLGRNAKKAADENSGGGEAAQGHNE

First: COC(=O)[C@H](Cc1ccccc1)NC(=O)[C@H](CC(=O)O)NCCC(C)(C)C [Neotame, neotame]
Second: COC(=O)[C@H](Cc1ccccc1)NC(=O)[C@@H](N)CC(=O)O [Aspartame, aspartame] (HELM PEPTIDE1{D.F.[CO[*:1]]}$$$$V2.0)
The S/N of the first is lower: 5.2 for the first, 5.5 for the second.

Compared with `COC(=O)[C@H](Cc1ccccc1)NC(=O)[C@H](CC(=O)O)NCCCc1ccc(OC)c(O)c1` [Advantame, advantame], `C[C@H](NC(=Nc1ccc(C#N)cc1)NCC(=O)O)c1ccccc1` [SC-45647, [3-[(S)-1-phenylethyl]-2-(4-cyanophenyl)guanidino]acetic acid] is lower in S/N: 7.0 for the first, 5.3 for the second.

Compared with `OC[C@H]1O[C@@](CO)(O[C@H]2O[C@H](CO)[C@@H](O)[C@H](O)[C@H]2O)[C@@H](O)[C@@H]1O` [Sucrose, sucrose], `OC[C@H]1O[C@H](O[C@]2(CCl)O[C@H](CCl)[C@@H](O)[C@@H]2O)[C@H](O)[C@@H](O)[C@H]1Cl` [Sucralose, sucralose] is higher in S/N: 3.7 for the first, 5.9 for the second.

Compared with `O=C1NS(=O)(=O)c2ccccc21.[Na]` [Saccharin Na, sodium saccharin], `CC1=CC(=O)NS(=O)(=O)O1` [Acesulfame K, acesulfame potassium] is lower in S/N: 3.8 for the first, 3.7 for the second.
